Measurements published in ChEMBL document CHEMBL3885881, “DrugMatrix”.

Species: Rattus norvegicus
Assay: DrugMatrix - Regimen: Daily Repeat
Type: toxicity, organism-based, Sprague-Dawley
Parameters: regimen Daily Repeat, gender Male, age 6-8 weeks
Conditions: in vivo, po, route oral GAVAGE, vehicle .5 % CMC; for ABSOLUTE BASOPHIL / ABSOLUTE EOSINOPHIL / ABSOLUTE LYMPHOCYTE / ABSOLUTE MONOCYTE / ABSOLUTE SEGMENTED NEUTROPHIL / BASOPHIL / EOSINOPHIL / ERYTHROCYTE COUNT / HEMATOCRIT / HEMOGLOBIN / LEUKOCYTE COUNT / LYMPHOCYTE / MEAN CORPUSCULAR HEMOGLOBIN / MEAN CORPUSCULAR HEMOGLOBIN CONCENTRATION / MEAN CORPUSCULAR VOLUME / MONOCYTE / NEUTROPHIL / NUCLEATED RED BLOOD CELLS / PLATELET COUNT: tissue Blood; for ALANINE AMINOTRANSFERASE / ALBUMIN / ALKALINE PHOSPHATASE / ASPARTATE AMINOTRANSFERASE / BLOOD UREA NITROGEN / CARBON DIOXIDE / CHLORIDE / CHOLESTEROL / CREATINE PHOSPHOKINASE / CREATININE / GLUCOSE / LACTATE DEHYDROGENASE / LIPASE / PHOSPHORUS / POTASSIUM / SODIUM / TOTAL BILIRUBIN / TOTAL PROTEIN / URIC ACID: tissue Plasma
[1] = 10 mg/kg, 72 h, dose level Low, time 3 day
[2] = 10 mg/kg, 120 h, dose level Low, time 5 day
[3] = 1750 mg/kg, 72 h, dose level High, time 3 day
[4] = 1750 mg/kg, 120 h, dose level High, time 5 day

CCOC(=O)[C@H](CCc1ccccc1)N[C@H]1CCc2ccccc2N(CC(=O)O)C1=O [BENAZEPRIL]
ABSOLUTE BASOPHIL [1]: 0 CELLS/uL | ABSOLUTE EOSINOPHIL [1]: 0 CELLS/uL | ABSOLUTE LYMPHOCYTE [1]: 8474.33 CELLS/uL | ABSOLUTE MONOCYTE [1]: 40.67 CELLS/uL | ABSOLUTE SEGMENTED NEUTROPHIL [1]: 418.33 CELLS/uL | BASOPHIL [1]: 0% | EOSINOPHIL [1]: 0% | ERYTHROCYTE COUNT [1]: 5.44 x10E6/uL | HEMATOCRIT [1]: 35.27% | HEMOGLOBIN [1]: 14.3 G/DL | LEUKOCYTE COUNT [1]: 8.93 x10E3/uL | LYMPHOCYTE [1]: 94.33% | MEAN CORPUSCULAR HEMOGLOBIN [1]: 26.27 pg | MEAN CORPUSCULAR HEMOGLOBIN CONCENTRATION [1]: 40.53 G/DL | MEAN CORPUSCULAR VOLUME [1]: 64.8 fL | MONOCYTE [1]: 0.67% | NEUTROPHIL [1]: 5% | NUCLEATED RED BLOOD CELLS [1]: 0 /100WBC | PLATELET COUNT [1]: 1050 x10E3/uL | ALANINE AMINOTRANSFERASE [1]: 47.33 u/L | ALBUMIN [1]: 4.6 G/DL | ALKALINE PHOSPHATASE [1]: 428.33 u/L | ASPARTATE AMINOTRANSFERASE [1]: 84.67 u/L | BLOOD UREA NITROGEN [1]: 18 mg/dL | CARBON DIOXIDE [1]: 34.33 mmol/L | CHLORIDE [1]: 99 MEQ/L | CHOLESTEROL [1]: 78.67 mg/dL | CREATINE PHOSPHOKINASE [1]: 322 u/L | CREATININE [1]: 0.22 mg/dL | GLUCOSE [1]: 135.33 mg/dL | LACTATE DEHYDROGENASE [1]: 124.67 u/L | LIPASE [1]: 10 u/L | PHOSPHORUS [1]: 10.63 mg/dL | POTASSIUM [1]: 6.53 MEQ/L | SODIUM [1]: 145.23 MEQ/L | TOTAL BILIRUBIN [1]: 0.2 mg/dL | TOTAL PROTEIN [1]: 6.57 G/DL | URIC ACID [1]: 0.83 mg/dL | ABSOLUTE BASOPHIL [2]: 0 CELLS/uL | ABSOLUTE EOSINOPHIL [2]: 90 CELLS/uL | ABSOLUTE LYMPHOCYTE [2]: 12851.33 CELLS/uL | ABSOLUTE MONOCYTE [2]: 265.67 CELLS/uL | ABSOLUTE SEGMENTED NEUTROPHIL [2]: 1459.67 CELLS/uL | BASOPHIL [2]: 0% | EOSINOPHIL [2]: 0.67% | ERYTHROCYTE COUNT [2]: 5.31 x10E6/uL | HEMATOCRIT [2]: 33.43% | HEMOGLOBIN [2]: 13.47 G/DL | LEUKOCYTE COUNT [2]: 14.67 x10E3/uL | LYMPHOCYTE [2]: 88% | MEAN CORPUSCULAR HEMOGLOBIN [2]: 25.33 pg | MEAN CORPUSCULAR HEMOGLOBIN CONCENTRATION [2]: 40.27 G/DL | MEAN CORPUSCULAR VOLUME [2]: 62.9 fL | MONOCYTE [2]: 2% | NEUTROPHIL [2]: 9.33% | NUCLEATED RED BLOOD CELLS [2]: 0 /100WBC | PLATELET COUNT [2]: 1304.67 x10E3/uL | ALANINE AMINOTRANSFERASE [2]: 52.67 u/L | ALBUMIN [2]: 4.2 G/DL | ALKALINE PHOSPHATASE [2]: 304.33 u/L | ASPARTATE AMINOTRANSFERASE [2]: 76 u/L | BLOOD UREA NITROGEN [2]: 18 mg/dL | CARBON DIOXIDE [2]: 32 mmol/L | CHLORIDE [2]: 102 MEQ/L | CHOLESTEROL [2]: 73.67 mg/dL | CREATINE PHOSPHOKINASE [2]: 234.67 u/L | CREATININE [2]: 0.15 mg/dL | GLUCOSE [2]: 160.67 mg/dL | LACTATE DEHYDROGENASE [2]: 106.67 u/L | LIPASE [2]: 9 u/L | PHOSPHORUS [2]: 13.27 mg/dL | POTASSIUM [2]: 7.06 MEQ/L | SODIUM [2]: 144.9 MEQ/L | TOTAL BILIRUBIN [2]: 0.2 mg/dL | TOTAL PROTEIN [2]: 6.27 G/DL | URIC ACID [2]: 1.57 mg/dL | ABSOLUTE BASOPHIL [3]: 0 CELLS/uL | ABSOLUTE EOSINOPHIL [3]: 139.33 CELLS/uL | ABSOLUTE LYMPHOCYTE [3]: 16004 CELLS/uL | ABSOLUTE MONOCYTE [3]: 0 CELLS/uL | ABSOLUTE SEGMENTED NEUTROPHIL [3]: 1823.33 CELLS/uL | BASOPHIL [3]: 0% | EOSINOPHIL [3]: 0.67% | ERYTHROCYTE COUNT [3]: 5.02 x10E6/uL | HEMATOCRIT [3]: 32.27% | HEMOGLOBIN [3]: 13.23 G/DL | LEUKOCYTE COUNT [3]: 17.97 x10E3/uL | LYMPHOCYTE [3]: 89.33% | MEAN CORPUSCULAR HEMOGLOBIN [3]: 26.43 pg | MEAN CORPUSCULAR HEMOGLOBIN CONCENTRATION [3]: 41.03 G/DL | MEAN CORPUSCULAR VOLUME [3]: 64.37 fL | MONOCYTE [3]: 0% | NEUTROPHIL [3]: 10% | NUCLEATED RED BLOOD CELLS [3]: 0 /100WBC | PLATELET COUNT [3]: 1175.67 x10E3/uL | ALANINE AMINOTRANSFERASE [3]: 47.67 u/L | ALBUMIN [3]: 4.13 G/DL | ALKALINE PHOSPHATASE [3]: 388 u/L | ASPARTATE AMINOTRANSFERASE [3]: 83.33 u/L | BLOOD UREA NITROGEN [3]: 23.67 mg/dL | CARBON DIOXIDE [3]: 28.33 mmol/L | CHLORIDE [3]: 101 MEQ/L | CHOLESTEROL [3]: 63.67 mg/dL | CREATINE PHOSPHOKINASE [3]: 244.67 u/L | CREATININE [3]: 0.24 mg/dL | GLUCOSE [3]: 152.33 mg/dL | LACTATE DEHYDROGENASE [3]: 297.33 u/L | LIPASE [3]: 9.33 u/L | PHOSPHORUS [3]: 11.27 mg/dL | POTASSIUM [3]: 7.42 MEQ/L | SODIUM [3]: 140.93 MEQ/L | TOTAL BILIRUBIN [3]: 0.23 mg/dL | TOTAL PROTEIN [3]: 5.73 G/DL | URIC ACID [3]: 1.73 mg/dL | ABSOLUTE BASOPHIL [4]: 0 CELLS/uL | ABSOLUTE EOSINOPHIL [4]: 0 CELLS/uL | ABSOLUTE LYMPHOCYTE [4]: 16017 CELLS/uL | ABSOLUTE MONOCYTE [4]: 660 CELLS/uL | ABSOLUTE SEGMENTED NEUTROPHIL [4]: 1423 CELLS/uL | BASOPHIL [4]: 0% | EOSINOPHIL [4]: 0% | ERYTHROCYTE COUNT [4]: 5.54 x10E6/uL | HEMATOCRIT [4]: 33.43% | HEMOGLOBIN [4]: 13.43 G/DL | LEUKOCYTE COUNT [4]: 18.1 x10E3/uL | LYMPHOCYTE [4]: 89.33% | MEAN CORPUSCULAR HEMOGLOBIN [4]: 24.3 pg | MEAN CORPUSCULAR HEMOGLOBIN CONCENTRATION [4]: 40.2 G/DL | MEAN CORPUSCULAR VOLUME [4]: 60.5 fL | MONOCYTE [4]: 3.67% | NEUTROPHIL [4]: 7% | NUCLEATED RED BLOOD CELLS [4]: 0.33 /100WBC | PLATELET COUNT [4]: 1330 x10E3/uL | ALANINE AMINOTRANSFERASE [4]: 49.67 u/L | ALBUMIN [4]: 4.03 G/DL | ALKALINE PHOSPHATASE [4]: 380.33 u/L | ASPARTATE AMINOTRANSFERASE [4]: 85.33 u/L | BLOOD UREA NITROGEN [4]: 44 mg/dL | CARBON DIOXIDE [4]: 30 mmol/L | CHLORIDE [4]: 104.33 MEQ/L | CHOLESTEROL [4]: 74.67 mg/dL | CREATINE PHOSPHOKINASE [4]: 585 u/L | CREATININE [4]: 0.27 mg/dL | GLUCOSE [4]: 150.67 mg/dL | LACTATE DEHYDROGENASE [4]: 227 u/L | LIPASE [4]: 9.33 u/L | PHOSPHORUS [4]: 10.53 mg/dL | POTASSIUM [4]: 6.39 MEQ/L | SODIUM [4]: 143.17 MEQ/L | TOTAL BILIRUBIN [4]: 0.2 mg/dL | TOTAL PROTEIN [4]: 6 G/DL | URIC ACID [4]: 1.53 mg/dL
